Publication PMC3520974, “Differential Dynamic Engagement within 24 SH3 Domain: Peptide Complexes Revealed by Co-Linear Chemical Shift Perturbation Analysis” (PLoS ONE, 2012)

Columns and labels:
[1] = system: Abp1p SH3 domain (AbpSH3); assay: Isothermal titration calorimetry of peptide binding to AbpSH3; set-up: species or system yeast
Protocol: Binding isotherms were recorded as previously at 30°C [23]. Enthalpy changes were measured at 4 different temperatures (20, 25, 30, 35°C) and the slopes of temperature vs. enthalpy change were fit to yield the change in heat capacity. All samples were in 50 mM sodium phosphate, 100 mM NaCl, 1 mM EDTA pH 7.0. Errors are ±95% confidence intervals except the ΔCP values, which report the standard error of the least squared fit to the data (ΔH vs. temperature).

[2] = system: Abp1p SH3 domain (AbpSH3); assay: Co-linear chemical shift perturbation (CCSP) analysis of peptide-saturated AbpSH3 complexes by NMR; assay type: binding, yeast; details: rank among the 24 complexes; >99% peptide-saturated
Protocol: NMR experiments were carried out at 30°C on Varian 500 MHz spectrometers equipped with pulsed field gradients and a triple resonance probe with actively shielded z-gradients. Data were processed and analyzed using nmrPipe/nmrDraw and nmrView. All spectra were recorded in 50 mM sodium phosphate, 100 mM NaCl, 1 mM EDTA pH 7.0. ^1H-^15N HSQC spectra were collected using standard methods. ^1H-^13C HSQC spectra were recorded using constant time HSQC experiments.
AbpSH3 complexes were assigned using the established assignments of ArkA-bound and free AbpSH3 [8]; serial peptide additions were used to monitor the direction that the peaks moved to assign the final position of the SH3 resonances. […] The assignments were also compared to the previously determined ArkA-AbpSH3 complex resonances. […]
The combined ^1H and ^15N chemical shift differences (in ppm) between each pair of resonances that define the lines x, y and z were calculated using the following expression: δΔ = √((Nppm shift * 0.1)^2+(Hppm shift)^2), where Nppm shift is the difference in ppm in the nitrogen dimension and Hppm is the difference in ppm in the proton dimension. The perpendicular distance (p) between the resonance and the CCSP line was calculated in the following way: p = √(x^2−s^2), where x = length of line connecting resonance to peptide free resonance and s = scalar projection. […]

[3] = system: Abp1p SH3 domain (AbpSH3); assay: Hydrogen exchange protection of AbpSH3 complexes by NMR; assay type: binding, yeast; details: sum of log amide protection factors of SII residues; 99% peptide-saturated 100 µM AbpSH3 in D2O, pH 7.0, 18°C, HSQC every 20 minutes over 24 hours
Protocol: All hydrogen exchange experiments were conducted in 50 mM sodium phosphate, 100 mM NaCl, 1 mM EDTA pH 7.0, 18°C. Based on the known binding constants, sufficient peptide was added to 100 µM AbpSH3 such that 99% saturation was achieved (this was confirmed by comparing the chemical shifts of previously recorded peptide-saturated samples) for 7 different AbpSH3 complexes (Table S4). The samples were lyophilized and resuspended in D2O, and ^1H-^15N HSQC spectra were recorded every 20 minutes over a period of 24 hours. Many peaks disappeared over time. Intensities of peaks were fit to exponential curves, to yield observed rate constants (kexchange) for each amide group. The rate constant was converted to log protection factor (P), log10(kintrinsic/kexchange) using values for amide protection of free amino acids (http://hx2.med.upenn.edu/download.html). […] These residues became protected to different degrees in the different complexes although they all still exchanged sufficiently fast for their rates to be accurately calculated within the timeframe of the experiment. The biggest difference for the sum between complexes is about 20, which corresponds to a residue ΔΔG of −2.8 kcal/mol, which is approximately the difference between the strongest and weakest peptide binding energy.

[4] = target: T1, Abp1p SH3 domain (SH3 domain from the yeast Actin Binding Protein 1) (yeast, UniProt P15891 532-592); assay: NMR titration; 1H-15N HSQC of AbpSH3 (70-100 µM) with serial peptide additions to 99% or greater saturation; 30°C; 50 mM sodium phosphate, 100 mM NaCl, 1 mM EDTA pH 7.0; details: both partners purified
T1 construct: 15N-labelled for the NMR work; also called AbpSH3
T1 sequence (looked up): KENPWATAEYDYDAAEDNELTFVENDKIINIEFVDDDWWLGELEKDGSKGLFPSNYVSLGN

Molecule	change in heat capacity (ΔCp) on complex formation ([1]; ITC, enthalpy changes at 20, 25, 30, 35°C, slope of ΔH vs. temperature, 50 mM sodium phosphate, 100 mM NaCl, 1 mM EDTA pH 7.0) [kcal/mol K]	binding energy ([1]; rank among the 24 complexes, ITC at 30°C)	CCSP values in AbpSH3 [2]	SII hydrogen exchange protection (Σ LogP in SII) [3]	binding result [4]
PRR: 15-residue peptide found N-terminal to AbpSH3 (residues 516 to 530 in Abp1p) (Ac-AAPPPPPRRATPEKK-NH2)	~0	the lowest measured	lowest	~0	–
Ac-AAPPPPPRRATPEKK-NH2 (peptide, UniProt P15891 516-530, looked up, residues 516 to 530 of yeast Abp1p, proline-rich region N-terminal to the SH3 domain, 15 residues; source: synthetic peptide (Biomer tech), purified to greater than 95% by HPLC) [PRR1, 15-residue peptide found N-terminal to AbpSH3 (residues 516 to 530 in Abp1p)]	–	–	–	–	binds
